Legend:
[1] = target: Human immunodeficiency virus type 1 reverse transcriptase (Human immunodeficiency virus 1, UniProt Q72547); assay: Inhibition of wild type HIV-1 reverse transcriptase using biotin-labelled dNTPs as substrate incubated for 2 hrs by ELISA
[2] = system: Human immunodeficiency virus 1; assay: Antiviral activity against HIV-1 IIIB infected in human MT4 cells assessed as protection against virus-induced cytotoxicity incubated for 5 days by MTT assay; assay type: functional, organism-based; details: Human immunodeficiency virus 1, IIIB, MT4, 120 h
[3] = system: Human immunodeficiency virus 1; assay: Antiviral activity against HIV-1 IIIB harboring K103N/Y181C double mutant infected in human MT4 cells assessed as protection against virus-induced cytotoxicity incubated for 5 days by MTT assay; assay type: functional, organism-based; details: Human immunodeficiency virus 1, IIIB, MT4, 120 h
[4] = Cytotoxicity against human MT4 cells assessed as reduction in cell viability incubated for 5 days by MTT assay; assay type: toxicity, cell-based; details: time 5 day
[5] = Selectivity index, ratio of CC50 for human MT4 cells to EC50 for antiviral activity against HIV-1 IIIB infected in human MT4 cells; assay type: toxicity, cell-based; details: MT4 cells (uninfected and infected with HIV-1 IIIB), read-out: Ratio CC50/EC50
[6] = Selectivity index, ratio of CC50 for human MT4 cells to EC50 for antiviral activity against HIV-1 IIIB harboring K103N/Y181C double mutant infected in human MT4 cells; assay type: toxicity, cell-based; details: read-out: Ratio CC50/EC50
[7] = system: Human immunodeficiency virus 1; assay: Antiviral activity against HIV1 L1001 infected in human MT4 cells assessed as protection against virus-induced cytopathic effect incubated for 5 days by MTT assay; assay type: functional, organism-based; details: Human immunodeficiency virus 1, L1001, MT4, 120 h
[8] = system: Human immunodeficiency virus 1; assay: Antiviral activity against HIV-1 harboring reverse transcriptase K103N mutant infected in human MT4 cells assessed as protection against virus-induced cytopathic effect incubated for 5 days by MTT assay; details: Human immunodeficiency virus 1, MT4, 120 h
[9] = system: Human immunodeficiency virus 1; assay: Antiviral activity against HIV-1 harboring reverse transcriptase Y181C mutant infected in human MT4 cells assessed as protection against virus-induced cytopathic effect incubated for 5 days by MTT assay; details: Human immunodeficiency virus 1, MT4, 120 h
[10] = system: Human immunodeficiency virus 1; assay: Antiviral activity against HIV-1 harboring reverse transcriptase Y188L mutant infected in human MT4 cells assessed as protection against virus-induced cytopathic effect incubated for 5 days by MTT assay; details: Human immunodeficiency virus 1, MT4, 120 h
[11] = system: Human immunodeficiency virus 1; assay: Antiviral activity against HIV-1 harboring reverse transcriptase E138K mutant infected in human MT4 cells assessed as protection against virus-induced cytopathic effect incubated for 5 days by MTT assay; details: Human immunodeficiency virus 1, MT4, 120 h
[12] = system: Human immunodeficiency virus 1; assay: Antiviral activity against HIV-1 harboring reverse transcriptase F227L/V106A mutant infected in human MT4 cells assessed as protection against virus-induced cytopathic effect incubated for 5 days by MTT assay; details: Human immunodeficiency virus 1, MT4, 120 h
[13] = Aqueous solubility of the compound at pH 7.4 by HPLC analysis; assay type: physicochemical; details: buffer
[14] = Aqueous solubility of the compound at pH 7.0 by HPLC analysis; assay type: physicochemical; details: buffer

| Compound | IC50 [1] [nM] | EC50 [2] [nM] | EC50 [3] [nM] | CC50 at 120 h [4] [µM] | selectivity ratio [5] | selectivity ratio [6] | EC50 [7] [nM] | EC50 [8] [nM] | EC50 [9] [nM] | EC50 [10] [nM] | EC50 [11] [nM] | EC50 [12] [nM] | solubility [13] [µg/mL] | solubility [14] [µg/mL] |
| --- | --- | --- | --- | --- | --- | --- | --- | --- | --- | --- | --- | --- | --- | --- |
| Cc1cc(/C=C/C#N)cc(C)c1Oc1nc(Nc2ccc(C#N)cc2)nc2c1COC2 | 60 | – | – | – | – | – | – | – | – | – | – | – | – | – |
| Cc1cc(/C=C/C#N)cc(C)c1Oc1nc(NC2CCN(c3ccc(S(N)(=O)=O)cc3)CC2)nc2c1COC2 | 60 | 4.18 | 1300 | 27.3 | 6530 | 23 | – | – | – | – | – | – | – | – |
| Cc1cc(/C=C/C#N)cc(C)c1Oc1nc(NC2CCN(c3ccc(C(N)=O)cc3)CC2)nc2c1COC2 | 60 | 2.38 | 992 | > 233 | > 97900 | > 234 | – | – | – | – | – | – | – | – |
| Cc1cc(/C=C/C#N)cc(C)c1Oc1nc(Nc2ccc(CN3CCN(S(N)(=O)=O)CC3)cc2)nc2c1COC2 | 280 | – | – | – | – | – | – | – | – | – | – | – | – | – |
| Cc1cc(/C=C/C#N)cc(C)c1Oc1nc(NC2CCN(Cc3ccc(S(N)(=O)=O)cc3)CC2)nc2c1COC2 | 140 | 6.24 | 24.7 | 14.7 | 2360 | 595 | 5.12 | 5.97 | 7.71 | 38 | 10.3 | 11.9 | – | – |
| Cc1cc(/C=C/C#N)cc(C)c1Oc1nc(NC2CCN(Cc3ccc([N+](=O)[O-])cc3)CC2)nc2c1COC2 | 180 | 8.32 | 65 | 6.67 | 801 | 103 | 10.4 | 7.78 | 26.8 | 94 | 21.7 | 60.5 | – | – |
| Cc1cc(/C=C/C#N)cc(C)c1Oc1nc(NC2CCN(Cc3ccc(N)cc3)CC2)nc2c1COC2 | 190 | 3.37 | 53.5 | 27 | 8020 | 505 | 10.2 | 5.58 | 9.36 | 51.4 | 9.16 | 37.6 | – | – |
| Cc1cc(/C=C/C#N)cc(C)c1Oc1nc(Nc2ccc(N3CCC(NS(C)(=O)=O)C3)cc2)nc2c1COC2 (stereo not given) | 180 | – | – | – | – | – | – | – | – | – | – | – | – | – |
| Cc1cc(/C=C/C#N)cc(C)c1Oc1nc(Nc2ccc(N3CCC(NS(N)(=O)=O)CC3)cc2)nc2c1COC2 | 1320 | – | – | – | – | – | – | – | – | – | – | – | – | – |
| Cc1cc(/C=C/C#N)cc(C)c1Oc1nc(NC2CCN(Cc3ccc(C(F)(F)F)cc3)CC2)nc2c1COC2 | 360 | 19.5 | 190 | 5.01 | 256 | 26 | 34.5 | 30.1 | 65.6 | 282 | 129 | 199 | – | – |
| Cc1cc(/C=C/C#N)cc(C)c1Oc1nc(NC2CCN(Cc3ccc(S(C)(=O)=O)cc3)CC2)nc2c1COC2 | 150 | 4.33 | 34.6 | 9.79 | 2260 | 283 | 5.18 | 6.47 | 9.96 | 41.4 | 15.4 | 16.3 | – | – |
| Cc1cc(/C=C/C#N)cc(C)c1Oc1nc(Nc2ccc(N3CCCC(NS(N)(=O)=O)C3)cc2)nc2c1COC2 (stereo not given) | 780 | – | – | – | – | – | – | – | – | – | – | – | – | – |
| Cc1cc(/C=C/C#N)cc(C)c1Nc1ccnc(Nc2ccc(C#N)cc2)n1 [RILPIVIRINE] | – | – | – | – | – | – | – | – | – | – | – | – | < 1 | < 1 |
| Cc1cc(/C=C/C#N)cc(C)c1Oc1nc(Nc2ccc(N3CCN(S(C)(=O)=O)CC3)cc2)nc2c1COC2 | 180 | – | – | – | – | – | – | – | – | – | – | – | – | – |

Source: ChEMBL document CHEMBL5038655, “Development of Novel Dihydrofuro[3,4-d]pyrimidine Derivatives as HIV-1 NNRTIs to Overcome the Highly Resistant Mutant Strains F227L/V106A and K103N/Y181C” (J Med Chem, 2022)
